Assay results published in article PMC5298231, “The Malaria Parasite's Lactate Transporter PfFNT Is the Target of Antiplasmodial Compounds Identified in Whole Cell Phenotypic Screens” (PLoS Pathogens, 2017).
Read-outs that look alike come from different tables or passages of the source.

Test system: erythrocytes infected with 3D7 trophozoites
Type: cell-based, Plasmodium falciparum
Conditions: 6 μM

With `COc1ccc2c(c1)OC(O)(C(F)(F)C(F)(F)F)CC2=O` (stereo not shown) [MMV007839] the “Serine log2 ratio (+MMV007839/-MMV007839)” value (Av 3hr) was 0.166, the “Succinate log2 ratio (+MMV007839/-MMV007839)” value (Av 3hr) was -0.2462 and the “Succinate semialdehyde log2 ratio (+MMV007839/-MMV007839)” value (Av 3hr) was -0.7119. The “TNVK log2 ratio (+MMV007839/-MMV007839)” value (Av 3hr) was -1.745, the “Threonine log2 ratio (+MMV007839/-MMV007839)” value (Av 3hr) was 0.01502 and the “Tryptophan log2 ratio (+MMV007839/-MMV007839)” value (Av 3hr) was -0.2359. The “Tyrosine log2 ratio (+MMV007839/-MMV007839)” value (Av 3hr) was -0.01653, the “UDP log2 ratio (+MMV007839/-MMV007839)” value (Av 3hr) was -0.7159 and the “UDP-N-acetyl-D-glucosamine log2 ratio (+MMV007839/-MMV007839)” value (Av 3hr) was 0.05247. The “UDP-glucose log2 ratio (+MMV007839/-MMV007839)” value (Av 3hr) was -0.07837, the “UMP log2 ratio (+MMV007839/-MMV007839)” value (Av 3hr) was -0.2624 and the “Uracil log2 ratio (+MMV007839/-MMV007839)” value (Av 3hr) was -0.6081. For the same compound, the “Uric Acid log2 ratio (+MMV007839/-MMV007839)” value (Av 3hr) was -0.1135, the “VD log2 ratio (+MMV007839/-MMV007839)” value (Av 3hr) was 1.073 and the “Valine log2 ratio (+MMV007839/-MMV007839)” value (Av 3hr) was -0.194. The “Xanthine log2 ratio (+MMV007839/-MMV007839)” value (Av 3hr) was -0.464, the “dADP log2 ratio (+MMV007839/-MMV007839)” value (Av 3hr) was -1.193 and the “dATP log2 ratio (+MMV007839/-MMV007839)” value (Av 3hr) was -0.03116. The “dCDP log2 ratio (+MMV007839/-MMV007839)” value (Av 3hr) was 0.3315, the “dGMP log2 ratio (+MMV007839/-MMV007839)” value (Av 3hr) was 0.1661 and the “dTMP log2 ratio (+MMV007839/-MMV007839)” value (Av 3hr) was 0.1316. The “dTTP log2 ratio (+MMV007839/-MMV007839)” value (Av 3hr) was -0.08156, the “dUMP log2 ratio (+MMV007839/-MMV007839)” value (Av 3hr) was 1.365 and the “myo-Inositol log2 ratio (+MMV007839/-MMV007839)” value (Av 3hr) was -0.258. The “sn-Glycerol 3-phosphate log2 ratio (+MMV007839/-MMV007839)” value (Av 3hr) was 1.559, the “sn-glycero-3-Phospho-1-inositol log2 ratio (+MMV007839/-MMV007839)” value (Av 3hr) was 0.1698 and the “Hexose-phosphate log2 ratio (+MMV007839/-MMV007839)” value (Av 3hr, medRt 15.0954) was -0.3219. For the same compound, the “6-Phospho-D-gluconate log2 ratio (+MMV007839/-MMV007839)” value (Av 3hr, medRt 16.8944) was -0.6275, the “Hexose-phosphate log2 ratio (+MMV007839/-MMV007839)” value (Av 3hr, medRt 17.0788) was -1.577 and the “6-Phospho-D-gluconate log2 ratio (+MMV007839/-MMV007839)” value (Av 3hr, medRt 17.4636) was -0.2282. The “1-3 (2-3)-diphopshateglycerate log2 ratio (+MMV007839/-MMV007839)” value (Av 6hr) was 0.3636, the “2-Hydroxyglutarate log2 ratio (+MMV007839/-MMV007839)” value (Av 6hr) was -0.3824 and the “2-Ketoglutarate log2 ratio (+MMV007839/-MMV007839)” value (Av 6hr) was -0.4713. The “3-Phosho-D-glycerate log2 ratio (+MMV007839/-MMV007839)” value (Av 6hr) was 0.02516, the “3-Phospho-serine log2 ratio (+MMV007839/-MMV007839)” value (Av 6hr) was -0.6364 and the “4-Aminobutanoate log2 ratio (+MMV007839/-MMV007839)” value (Av 6hr) was 1.092. The “5-Phosphoribosyl-1-pyrophosphate log2 ratio (+MMV007839/-MMV007839)” value (Av 6hr) was 0.556, the “ADP log2 ratio (+MMV007839/-MMV007839)” value (Av 6hr) was -0.3027 and the “AMP log2 ratio (+MMV007839/-MMV007839)” value (Av 6hr) was -0.04039. The “ATLS log2 ratio (+MMV007839/-MMV007839)” value (Av 6hr) was -0.1601, the “ATP log2 ratio (+MMV007839/-MMV007839)” value (Av 6hr) was -0.3608 and the “Acetyl-CoA log2 ratio (+MMV007839/-MMV007839)” value (Av 6hr) was -0.9886. The “Acetyl-L-alanine log2 ratio (+MMV007839/-MMV007839)” value (Av 6hr) was -0.3969, the “Adenine log2 ratio (+MMV007839/-MMV007839)” value (Av 6hr) was -0.7079 and the “Arginine log2 ratio (+MMV007839/-MMV007839)” value (Av 6hr) was 0.2024. The “Asparagine log2 ratio (+MMV007839/-MMV007839)” value (Av 6hr) was 0.205, the “Aspartic Acid log2 ratio (+MMV007839/-MMV007839)” value (Av 6hr) was -0.08675 and the “CDP log2 ratio (+MMV007839/-MMV007839)” value (Av 6hr) was -0.2824. For the same compound, the “CDP-ethanolamine log2 ratio (+MMV007839/-MMV007839)” value (Av 6hr) was -0.09908, the “CMP log2 ratio (+MMV007839/-MMV007839)” value (Av 6hr) was 0.2839 and the “CTP log2 ratio (+MMV007839/-MMV007839)” value (Av 6hr) was -0.5655. For the same compound, the “Cholesteryl sulfate log2 ratio (+MMV007839/-MMV007839)” value (Av 6hr) was -0.1903, the “Citrate log2 ratio (+MMV007839/-MMV007839)” value (Av 6hr) was -0.1627 and the “CoA log2 ratio (+MMV007839/-MMV007839)” value (Av 6hr) was -0.6499. For the same compound, the “Cyclic AMP log2 ratio (+MMV007839/-MMV007839)” value (Av 6hr) was -1.349, the “Cytidine log2 ratio (+MMV007839/-MMV007839)” value (Av 6hr) was 0.1751 and the “D-Glucono-1-4-lactone log2 ratio (+MMV007839/-MMV007839)” value (Av 6hr) was 2.219. The “DALT log2 ratio (+MMV007839/-MMV007839)” value (Av 6hr) was 0.7209, the “DEVG log2 ratio (+MMV007839/-MMV007839)” value (Av 6hr) was -0.06216 and the “DGLA log2 ratio (+MMV007839/-MMV007839)” value (Av 6hr) was 0.8365. The “DLS log2 ratio (+MMV007839/-MMV007839)” value (Av 6hr) was -0.1236, the “Deoxycytidine log2 ratio (+MMV007839/-MMV007839)” value (Av 6hr) was 1.626 and the “Dihydroorotate log2 ratio (+MMV007839/-MMV007839)” value (Av 6hr) was -1.004. The “ESFG log2 ratio (+MMV007839/-MMV007839)” value (Av 6hr) was 0.5044, the “EVGG log2 ratio (+MMV007839/-MMV007839)” value (Av 6hr) was -0.2203 and the “Erythrose 4-phosphate log2 ratio (+MMV007839/-MMV007839)” value (Av 6hr) was -0.7036. For the same compound, the “FAD log2 ratio (+MMV007839/-MMV007839)” value (Av 6hr) was -0.616, the “FMN log2 ratio (+MMV007839/-MMV007839)” value (Av 6hr) was -0.6137 and the “Farnesyl diphosphate log2 ratio (+MMV007839/-MMV007839)” value (Av 6hr) was -0.2783. The “Folate log2 ratio (+MMV007839/-MMV007839)” value (Av 6hr) was -0.4942, the “Fructose-1-6-bisphosphate log2 ratio (+MMV007839/-MMV007839)” value (Av 6hr) was 0.3974 and the “Fructose-6-Phosphate log2 ratio (+MMV007839/-MMV007839)” value (Av 6hr) was -0.1081. For the same compound, the “GDP log2 ratio (+MMV007839/-MMV007839)” value (Av 6hr) was -0.8963, the “GDP-mannose log2 ratio (+MMV007839/-MMV007839)” value (Av 6hr) was -1.076 and the “GMP log2 ratio (+MMV007839/-MMV007839)” value (Av 6hr) was -0.8795. For the same compound, the “GTP log2 ratio (+MMV007839/-MMV007839)” value (Av 6hr) was -0.6956, the “Geranylgeranyl pyrophosphate log2 ratio (+MMV007839/-MMV007839)” value (Av 6hr) was -0.7121 and the “Gluconate log2 ratio (+MMV007839/-MMV007839)” value (Av 6hr) was -0.0152. The “Glucose-6-Phosphate log2 ratio (+MMV007839/-MMV007839)” value (Av 6hr) was -0.5083, the “Glutamate log2 ratio (+MMV007839/-MMV007839)” value (Av 6hr) was -0.02563 and the “Glutamine log2 ratio (+MMV007839/-MMV007839)” value (Av 6hr) was 1.089. The “Glutathione disulfide log2 ratio (+MMV007839/-MMV007839)” value (Av 6hr) was -0.1925, the “Glutathione log2 ratio (+MMV007839/-MMV007839)” value (Av 6hr) was -0.4326 and the “Glyceraldehyde 3-phosphate log2 ratio (+MMV007839/-MMV007839)” value (Av 6hr) was -1.148. For the same compound, the “Glycerone phosphate log2 ratio (+MMV007839/-MMV007839)” value (Av 6hr) was -0.3794, the “HLD log2 ratio (+MMV007839/-MMV007839)” value (Av 6hr) was 0.5581 and the “HVDD log2 ratio (+MMV007839/-MMV007839)” value (Av 6hr) was 0.02571. The “Histidine log2 ratio (+MMV007839/-MMV007839)” value (Av 6hr) was 1.263, the “Homoserine log2 ratio (+MMV007839/-MMV007839)” value (Av 6hr) was 0.6347 and the “Hydroxy-L-proline log2 ratio (+MMV007839/-MMV007839)” value (Av 6hr) was -0.1227. The “Hypoxanthine log2 ratio (+MMV007839/-MMV007839)” value (Av 6hr) was 0.2056, the “IDP log2 ratio (+MMV007839/-MMV007839)” value (Av 6hr) was 0.2522 and the “IMP log2 ratio (+MMV007839/-MMV007839)” value (Av 6hr) was -0.2109. The “Inosine log2 ratio (+MMV007839/-MMV007839)” value (Av 6hr) was 0.5174, the “Isoleucine log2 ratio (+MMV007839/-MMV007839)” value (Av 6hr) was 0.1143 and the “LD log2 ratio (+MMV007839/-MMV007839)” value (Av 6hr) was 0.1248. The “Lactate log2 ratio (+MMV007839/-MMV007839)” value (Av 6hr) was 2.505, the “Leucine log2 ratio (+MMV007839/-MMV007839)” value (Av 6hr) was 0.06585 and the “Lysine log2 ratio (+MMV007839/-MMV007839)” value (Av 6hr) was 1.1316. For the same compound, the “Malate log2 ratio (+MMV007839/-MMV007839)” value (Av 6hr) was -0.236, the “Mannitol log2 ratio (+MMV007839/-MMV007839)” value (Av 6hr) was -0.1109 and the “Methionine log2 ratio (+MMV007839/-MMV007839)” value (Av 6hr) was -0.2224. For the same compound, the “Myristic acid log2 ratio (+MMV007839/-MMV007839)” value (Av 6hr) was -0.7184, the “N-Acetyl-glutamate log2 ratio (+MMV007839/-MMV007839)” value (Av 6hr) was -1.091 and the “N-Carbamoyl-L-aspartate log2 ratio (+MMV007839/-MMV007839)” value (Av 6hr) was -1.386. The “NAD+ log2 ratio (+MMV007839/-MMV007839)” value (Av 6hr) was 0.1336.
